Laboratory results from patent publication US20100267561A1, “HERBICIDAL PYRIDAZINONE DERIVATIVES” (priority 2007, published 2010).

Experiments:
Assay in all cases: Test B pre-/postemergence plant response
Type in all cases: in vivo
[1] = test system: Russian thistle (Salsola iberica); details: Preemergence
Method in brief: (§1)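 Seeds were sown and sprayed preemergence, while plants at 2 to 18 cm (1- to 4-leaf stage) got postemergence sprays. Compounds were formulated in a non-phytotoxic solvent mixture with surfactant. After 13 to 15 days in a greenhouse, injury was rated visually against untreated controls, 0 (no effect) to 100 (complete control).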

[2] = test system: cocklebur (Xanthium strumarium); details: for Cocklebur plant response rating: 8 g ai/ha
Method in brief: as §1

[3] = test system: green foxtail (Setaria viridis)
Method in brief: as §1

[4] = test system: corn (Zea mays)
Method in brief: as §1

[5] = test system: yellow nutsedge (Cyperus esculentus)
Method in brief: as §1

[6] = test system: woolly cupgrass (Eriochloa villosa)
Method in brief: as §1

[7] = test system: common ragweed (Ambrosia elation)
Method in brief: as §1

[8] = test system: blackgrass (Alopecurus myosuroides); details: for Blackgrass plant response rating: 8 g ai/ha
Method in brief: as §1

[9] = test system: common (oilseed) sunflower (Helianthus annuus); details: Preemergence
Method in brief: as §1

[10] = test system: eastern black (E.B.) nightshade (Solanum ptycanthum); details: Preemergence
Method in brief: as §1

[11] = test system: wheat (Triticum aestivum)
Method in brief: as §1

[12] = test system: downy bromegrass (Bromus tectorum); details: for Bromegrass, Downy plant response rating: 8 g ai/ha
Method in brief: as §1

[13] = test system: wild oat (Avena fatua)
Method in brief: as §1

[14] = test system: surinam grass (Brachiaria decumbens)
Method in brief: as §1

[15] = 31 g ai/ha, scale 0 to 100 (0 no effect, 100 complete control)
[16] = Postemergence, 16 g ai/ha, scale 0 to 100
[17] = Postemergence, 31 g ai/ha, scale 0 to 100
[18] = Postemergence, 62 g ai/ha, scale 0 to 100, 0 no effect, 100 complete control
[19] = Preemergence, 16 g ai/ha, scale 0 to 100 (0 no effect, 100 complete control)
[20] = Preemergence, 31 g ai/ha, 0 to 100 scale, 0 no effect, 100 complete control
[21] = Preemergence, 62 g ai/ha, scale 0 to 100
[22] = 8 g ai/ha, postemergence, 0-100 scale
[23] = Preemergence, 8 g ai/ha, scale 0 to 100
[24] = Preemergence, 16 g ai/ha, scale 0 to 100
[25] = Preemergence, 31 g ai/ha, scale 0 to 100 (0 no effect, 100 complete control)
[26] = Preemergence, 62 g ai/ha, 0 to 100 scale, 0 no effect, 100 complete control

With `CCOC(=O)Oc1cnn(C)c(=O)c1-n1nc(-c2ccc(Cl)cc2)cc1C` [Compound 53] the “Plant response rating, Russian Thistle” value [1, 15] was 0, the “Plant response rating, Russian Thistle” value ([1]; 62 g ai/ha, scale 0 to 100) was 0 and the “Russian Thistle plant response rating” value ([1]; 8 g ai/ha, scale 0 to 100) was 0. For the same compound, the “Russian Thistle plant response rating” value ([1]; 16 g ai/ha, scale 0 to 100) was 0, the “Cocklebur plant response rating” value ([2]; postemergence, 0-100 scale) was 0 and the “Plant response rating, Cocklebur” value [2, 16] was 0. The “Plant response rating, Cocklebur” value [2, 17] was 0, the “Plant response rating, Cocklebur” value [2, 18] was 0 and the “Plant response rating, Cocklebur” value [2, 19] was 0. The “Plant response rating, Cocklebur” value [2, 20] was 0, the “Plant response rating, Cocklebur” value [2, 21] was 0 and the “Cocklebur plant response rating” value ([2]; Preemergence, scale 0 to 100) was 0. The “Foxtail, Green plant response rating” value [3, 22] was 95, the “Plant response rating, Foxtail, Green” value [3, 16] was 95 and the “Plant response rating, Foxtail, Green” value [3, 17] was 100. The “Plant response rating, Foxtail, Green” value [3, 18] was 100, the “Plant response rating, Foxtail, Green” value [3, 20] was 100 and the “Plant response rating, Foxtail, Green” value [3, 21] was 100. The “Foxtail, Green plant response rating” value [3, 23] was 95, the “Foxtail, Green plant response rating” value [3, 24] was 100 and the “Corn plant response rating” value [4, 22] was 20. The “Plant response rating, Corn” value [4, 16] was 100, the “Plant response rating, Corn” value [4, 17] was 100 and the “Plant response rating, Corn” value [4, 18] was 100. For the same compound, the “Plant response rating, Corn” value [4, 20] was 55, the “Plant response rating, Corn” value [4, 21] was 60 and the “Corn plant response rating” value [4, 23] was 0. The “Corn plant response rating” value [4, 24] was 45, the “Nutsedge, Yellow plant response rating” value [5, 22] was 0 and the “Plant response rating, Nutsedge, Yellow” value [5, 16] was 0. The “Plant response rating, Nutsedge, Yellow” value [5, 17] was 0, the “Plant response rating, Nutsedge, Yellow” value [5, 18] was 0 and the “Plant response rating, Nutsedge, Yellow” value [5, 25] was 0. The “Plant response rating, Nutsedge, Yellow” value [5, 21] was 0, the “Nutsedge, Yellow plant response rating” value [5, 23] was 0 and the “Nutsedge, Yellow plant response rating” value [5, 24] was 0. The “Cupgrass, Woolly plant response rating” value [6, 22] was 85, the “Plant response rating, Cupgrass, Woolly” value [6, 16] was 100 and the “Plant response rating, Cupgrass, Woolly” value [6, 17] was 100. For the same compound, the “Plant response rating, Cupgrass, Woolly” value [6, 18] was 100, the “Plant response rating, Cupgrass, Woolly” value [6, 20] was 0 and the “Plant response rating, Cupgrass, Woolly” value [6, 21] was 0. The “Cupgrass, Woolly plant response rating” value [6, 23] was 0, the “Cupgrass, Woolly plant response rating” value [6, 24] was 0 and the “Ragweed plant response rating” value [7, 22] was 0. For the same compound, the “Plant response rating, Ragweed” value [7, 16] was 0, the “Plant response rating, Ragweed” value [7, 17] was 0 and the “Plant response rating, Ragweed” value [7, 18] was 0. The “Plant response rating, Ragweed” value [7, 25] was 0, the “Plant response rating, Ragweed” value [7, 21] was 0 and the “Ragweed plant response rating” value [7, 23] was 0. The “Ragweed plant response rating” value [7, 24] was 0, the “Blackgrass plant response rating” value ([8]; postemergence, 0-100 scale) was 30 and the “Plant response rating, Blackgrass” value [8, 16] was 60. The “Plant response rating, Blackgrass” value [8, 17] was 95, the “Plant response rating, Blackgrass” value [8, 18] was 95 and the “Plant response rating, Blackgrass” value [8, 19] was 100. The “Plant response rating, Blackgrass” value [8, 20] was 100, the “Plant response rating, Blackgrass” value [8, 21] was 100 and the “Blackgrass plant response rating” value ([8]; Preemergence, scale 0 to 100) was 95. The “Plant response rating, Sunflower” value [9, 15] was 0, the “Plant response rating, Sunflower” value ([9]; 62 g ai/ha, scale 0 to 100) was 0 and the “Sunflower plant response rating” value ([9]; 8 g ai/ha, scale 0 to 100) was 0. The “Sunflower plant response rating” value ([9]; 16 g ai/ha, scale 0 to 100) was 0, the “Plant response rating, Nightshade, E. B.” value [10, 15] was 15 and the “Plant response rating, Nightshade, E. B.” value ([10]; 62 g ai/ha, scale 0 to 100) was 20. The “Nightshade, E. B. plant response rating” value ([10]; 8 g ai/ha, scale 0 to 100) was 0, the “Nightshade, E. B. plant response rating” value ([10]; 16 g ai/ha, scale 0 to 100) was 0 and the “Wheat plant response rating” value [11, 22] was 5. The “Plant response rating, Wheat” value [11, 16] was 55, the “Plant response rating, Wheat” value [11, 17] was 85 and the “Plant response rating, Wheat” value [11, 18] was 85. The “Plant response rating, Wheat” value [11, 25] was 0, the “Plant response rating, Wheat” value [11, 26] was 55 and the “Wheat plant response rating” value [11, 24] was 0. The “Bromegrass, Downy plant response rating” value ([12]; postemergence, 0-100 scale) was 10, the “Plant response rating, Bromegrass, Downy” value [12, 16] was 45 and the “Plant response rating, Bromegrass, Downy” value [12, 17] was 60. The “Plant response rating, Bromegrass, Downy” value [12, 18] was 90, the “Plant response rating, Bromegrass, Downy” value [12, 19] was 50 and the “Plant response rating, Bromegrass, Downy” value [12, 20] was 70. For the same compound, the “Plant response rating, Bromegrass, Downy” value [12, 21] was 90, the “Bromegrass, Downy plant response rating” value ([12]; Preemergence, scale 0 to 100) was 10 and the “Oat, Wild plant response rating” value [13, 22] was 80. For the same compound, the “Plant response rating, Oat, Wild” value [13, 16] was 90, the “Plant response rating, Oat, Wild” value [13, 17] was 95 and the “Plant response rating, Oat, Wild” value [13, 18] was 98. The “Plant response rating, Oat, Wild” value [13, 25] was 80, the “Plant response rating, Oat, Wild” value [13, 21] was 85 and the “Oat, Wild plant response rating” value [13, 23] was 40. For the same compound, the “Oat, Wild plant response rating” value [13, 24] was 65, the “Surinam Grass plant response rating” value [14, 22] was 75 and the “Plant response rating, Surinam Grass” value [14, 16] was 98. For the same compound, the “Plant response rating, Surinam Grass” value [14, 17] was 100, the “Plant response rating, Surinam Grass” value [14, 18] was 100 and the “Plant response rating, Surinam Grass” value [14, 25] was 60. For the same compound, the “Plant response rating, Surinam Grass” value [14, 26] was 95, the “Surinam Grass plant response rating” value [14, 23] was 0 and the “Surinam Grass plant response rating” value [14, 24] was 20.
